The results in this text go back to article PMC5978685, “Design, Synthesis, and Evaluation of Novel Immunomodulatory Small Molecules Targeting the CD40–CD154 Costimulatory Protein-Protein Interaction” (Molecules : A Journal of Synthetic Chemistry and Natural …, 2018).

Molecules are shown by their SMILES. Like-named read-outs stand apart in the source and are kept apart here. Bounds are passed on as bounds.

For assay [1], the system named is CD154-induced NF-κB activation in CD40 sensor cells. In words: CD40 sensor cell assay (HEK Blue CD40, SEAP reporter). The conditions noted are these: for IC50: Homo sapiens, CD154 100 ng/mL, 24 h. The assay is classed as cell-based, human. The source says:
As further confirmation of the inhibitory activity of our compounds, a cell-based assay was used with sensor cells (HEK Blue CD40) containing a secreted embryonic alkaline phosphatase (SEAP) reporter gene under the control of a promoter fused to a NF-κB binding site and transfected with CD40. […] For all tested compounds, the corresponding IC50 values are higher than those determined in the cell-free binding inhibition assay (Table 1) representing a loss of activity which is likely due to non-specific binding on account of the presence of proteins and cells in the assay, as well as hydrophobicity-related problems. Cytotoxicities were also evaluated in these same cells and at the same concentrations using a standard MTS assay to ensure that effects are present at non-toxic concentration levels.
CD40 expressing NF-κB sensor cells (HEK Blue, InvivoGen, San Diego, CA, USA) were used to assess the ability of the present compounds to block CD154-induced activation as described before. Briefly, cells were maintained in DMEM at 80% confluence for each experiment. Cells were trypsinized and re-suspended in the same medium without FBS and seeded on 96-well microtiter plates at a density of 50,000 cells/well in the absence and presence of various concentrations of compounds diluted in the same media. For ligand mediated stimulation, a concentration of recombinant human CD154 (100 ng/mL) found to induce an optimal response was maintained in the wells for this purpose. After 24 h of incubation at 37 °C, 40 μL supernatant of each well were taken and added to another 96-well microtiter plate containing 160 μL/well of QUANTI-Blue (InvivoGen). The level of SEAP was determined after 1 h of incubation at 37 °C by reading at 650 nm using a spectrophotometer. A monoclonal anti-human CD154 antibody (clone 40804, R&D Systems, Minneapolis, MN, USA) was used as a positive control at 240 nM concentration.
(§1) All binding inhibition and cell assays were tested in duplicate or triplicate per plates, and assays were performed as at least three independent experiments. As before, binding and cytotoxicity data were converted to percent inhibition and fitted with standard log inhibitor vs. normalized response models using nonlinear regression in GraphPad Prism (GraphPad, La Jolla, CA, USA) to establish half-maximal (median) inhibitory concentration (IC50) or median lethal concentration (LC50) values. Cell assay data were fitted with a similar model that also allowed for a variable slope using the log inhibitor vs. normalized response (variable slope) model from Prism with a Hill slope (n) shared across all compounds. Cell assays and draining lymph node data were analyzed by one-way repeated-measures analysis of variance (ANOVA) followed by Dunnett’s multiple comparison test as a post hoc test for individual differences using GraphPad Prism and a significance level of p < 0.05 for all comparisons.
Figure 5 Inhibition of CD154-induced NF-κB activation in CD40 sensor cells by compounds 6, 14, 15, and 18 in a concentration-dependent manner. Tartrazine (TZ) and an anti-CD154 antibody (mAb; single dose, 240 nM) were included as negative and positive controls, respectively. Data are average ± SD (normalized to CD154-activated cells alone) for n = 2 independent experiments with duplicates for each condition.

In the next assay the target is T1, BAFFR–BAFF (Homo sapiens, UniProt Q9Y275).
T1 construct: purchased Enzo Life Sciences
T1 sequence (Q9Y275 134-285 limits assumed): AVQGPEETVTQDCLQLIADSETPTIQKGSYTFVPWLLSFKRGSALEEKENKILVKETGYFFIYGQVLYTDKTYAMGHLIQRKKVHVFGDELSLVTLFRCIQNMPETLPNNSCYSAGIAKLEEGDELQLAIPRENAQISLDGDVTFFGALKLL
The assay can be described thus: cell-free ELISA-type binding inhibition assay, BAFFR–BAFF. Here is the method: (§2) In parallel with the CD40–CD154 assay, the ability of these compounds to inhibit other TNFSFR–TNFSF PPIs, including OX40–OX40L, BAFFR–BAFF, and TNF-R1–TNF-α, was also assessed (Figure 3B–D).
(§3) Binding inhibition assays were performed in a 96-well cell-free format as described before. Briefly, microtiter plates (Nunc F Maxisorp, 96-well; Thermo Fisher Scientific, Waltham, MA, USA) were coated overnight at 4 °C with 100 μL/well of Fc-conjugated receptors diluted in PBS pH 7.2. This was followed by blocking with 200 μL/well of blocking solution (PBS pH 7.2, 0.05% Tween-20, 1% BSA) for 1 h at RT. Then, plates were washed twice using washing solution (PBS pH 7.4, 0.05% Tween-20) and tapped dry before the addition of the appropriate FLAG tagged ligands along with different concentrations of tested dyes diluted in binding buffer (100 mM HEPES, 0.005% BSA pH 7.2) to give a total volume of 100 μL/well. After 1 h incubation, three washes were conducted, and anti-FLAG HRP conjugate was used to detect the bound FLAG-tagged ligand. Plates were washed four times before the addition of 120 μL/well of HRP substrate TMB (3,3′,5,5′-tetramethylbenzidine) and kept in the dark for up to 15 min. The reaction was stopped using 30 μL of 1M H2SO4, and the absorbance value was read at 450 nm. The concentrations of receptors used were 0.3 μg/mL for CD40, TNF-R1, and BAFFR; 0.6 μg/mL for OX40. The concentrations of the ligands were fixed at 0.02 μg/mL for CD154 and TNF-α, 0.06 μg/mL for OX40L, and 0.03 μg/mL for BAFF. These values were selected following preliminary testing to optimize response (i.e., to produce a high-enough signal at conditions close to half-maximal response, EC50). […] To verify that inhibition is not due to colloidal aggregation, CD40 binding inhibition was also measured in the presence of the non-ionic detergent Triton-X 100 (0.01%), as recommended for the detection of such effects.
as §1
(§4) Data are (counterclockwise) for human CD40–CD154 (CD40L) (A); OX40–OX40L (B); BAFFR–BAFF (C); and TNF-R1–TNFα (D) and were fitted with standard binding curves. Data are average ± SD (normalized to percent binding) for n = 3 independent experiments with duplicates for each condition.
For orientation: An ELISA detects its analyte on a solid surface through an enzyme-linked reagent.

In another assay the target is T2, OX40–OX40L (Homo sapiens, UniProt P23510).
T2 construct: purchased Enzo Life Sciences
T2 sequence (P23510 51-183 limits assumed): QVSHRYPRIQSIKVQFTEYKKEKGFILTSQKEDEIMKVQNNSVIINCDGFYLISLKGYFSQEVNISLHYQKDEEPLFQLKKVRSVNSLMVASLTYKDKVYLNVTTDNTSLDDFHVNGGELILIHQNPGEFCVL
The assay can be described thus: cell-free ELISA-type binding inhibition assay, OX40–OX40L. Here is the method:
as §2, §3, §1, §4

The next assay concerns the target T3, TNF-R1–TNFα (Homo sapiens, UniProt P01375).
T3 construct: purchased Enzo Life Sciences
The assay can be described thus: cell-free ELISA-type binding inhibition assay, TNF-R1–TNFα. Here is the method:
as §2, §3, §1, §4

Setting [2] is: cell-free TNF-R1–TNFα binding inhibition, read-out: TNF IC50.

T3 sequence (P01375 85-233 limits assumed): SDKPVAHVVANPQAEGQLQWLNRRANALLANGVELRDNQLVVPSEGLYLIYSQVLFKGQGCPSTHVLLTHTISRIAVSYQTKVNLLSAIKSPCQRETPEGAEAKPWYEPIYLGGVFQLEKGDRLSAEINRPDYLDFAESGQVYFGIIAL

`O=C(Nc1ccc(-c2ccc(C(=O)Nc3cccc4cccc(S(=O)(=O)O)c34)cc2)nc1)c1ccc([N+](=O)[O-])cc1` [Compound 18, 8-(4-(5-(4-Nitrobenzamido)pyridin-2-yl)benzamido)naphthalene-1-sulfonic acid]: the “inhibition of CD154-induced NF-κB activation (qualitative)” value in assay [1] was “concentration-dependent inhibition”. The IC50 turned out to be 8.7 µM in assay [1], 8.07 µM on BAFFR–BAFF, 5.48 µM at OX40–OX40L and 46.9 µM on TNF-R1–TNFα (setting [2]).
On the same counts, the results for `O=C(Nc1ccc(-c2ccc(C(=O)Nc3cccc4cccc(S(=O)(=O)O)c34)cc2)cc1)c1ccc([N+](=O)[O-])cc1` [Compound 6, 8-(4′-(4-Nitrobenzamido)biphenyl-4-ylcarboxamido)naphthalene-1-sulfonic acid] are “concentration-dependent inhibition”, 19.9 µM, 0.328 µM, 318 µM and greater than 1000 µM.
Consider `COC(=O)c1ccc(-c2ccc(C(=O)Nc3ccc(-c4ccc(C(=O)Nc5cccc6cccc(S(=O)(=O)O)c56)cc4)cc3)cc2)cc1` [Compound 15, 8-(4′-(4′-(Methoxycarbonyl)-[1,1′-biphenyl]-4-carboxamido)-[1,1′-biphenyl]-4-carboxamido)naphthalene-1-sulfonic acid], for which, in assay [1], the “inhibition of CD154-induced NF-κB activation (qualitative)” value is “concentration-dependent inhibition”. Moreover, the IC50 in assay [1] was determined as 6 µM; at BAFFR–BAFF, 1.52 µM; at OX40–OX40L, 1.01 µM; on TNF-R1–TNFα (setting [2]) it was 26.5 µM; at TNF-R1–TNFα (cell-free binding inhibition, read-out: TNF-R1–TNF IC50), 26.5 µM.

The term IC50 denotes the concentration at which inhibition is half-maximal.
